Literature values in patent US20100016430A1, “MODIFIED COCONUT OILS WITH BROAD ANTIMICROBIAL SPECTRUM” (MALAYSIAN AGRICULTERAL RESEARCH AND DEVELOPMENT IN, priority 2005, published 2010).

Tests used:
C. albicans = conditions: Bergsson et al. 2001
C. trachomatis = conditions: for Effect on C. trachomatis: 10 mM concentration
H. pylori = conditions: 10 mM for 30 min at 37° C.
coliform = conditions: 250 and 500 ppm in naturally contaminated cottage cheese
Pseudomonas spp = conditions: 250 and 500 ppm in naturally contaminated cottage cheese

Question: With `CCCCCCCCCC(=O)O` [capric acid] as the compound, how does the “Killing of C. albicans / antimicrobial effect” value (C. albicans) read?
Answer: The value was “fastest and most effective killing”.

Question: What does the source list for `CCCCCCCCCCCC(=O)O` [lauric acid]?
Answer: Killing of C. albicans / antimicrobial effect (C. albicans): fastest and most effective killing; Inactivation of C. trachomatis (C. trachomatis; 5 mM for 5 min): greater than 100,000 fold

Question: With `CCCCCCCCCC(=O)OCC(O)CO` (stereo not drawn) [monocaprin] as the compound, how does the “Activity against H. pylori” value (H. pylori) read?
Answer: Its value is “most active”.

Question: With `CCCCCCCC(=O)OCC(O)CO` (stereo not drawn) [monocaprylin] as the compound, how does the “Effect on C. trachomatis” value (C. trachomatis) read?
Answer: The value was “negligible effect”.

Question: Which results are given for `CCCCCCCCCCCC(=O)OCC(O)CO` (stereo not drawn) [monolaurin]?
Answer: Inhibition of coliform (coliform): more than 90%; Activity against H. pylori (H. pylori): most active; Inhibition of Pseudomonas spp (Pseudomonas spp): more than 90%; Effect on C. trachomatis (C. trachomatis): negligible effect

Question: With `CCCCCCCCCCCCCC(=O)O` [myristic acid] as the compound, how does the “Killing of C. albicans / antimicrobial effect” value (C. albicans) read?
Answer: Its value is “do not shown antimicrobial effect”.

Question: For `CCCCCCCC/C=C\CCCCCCCC(=O)O` [oleic acid], which “Killing of C. albicans / antimicrobial effect” value (C. albicans) is on record?
Answer: The value was “do not shown antimicrobial effect”.

Question: For `CCCCCC/C=C\CCCCCCCC(=O)O` [palmitoleic acid], which “Killing of C. albicans / antimicrobial effect” value (C. albicans) is on record?
Answer: Its value is “do not shown antimicrobial effect”.
